# Assay results published in patent US5132309A, “2-oxo-3,8-diazaspiro(4,5)decane derivatives, pharmaceutical compositions containing them and process for preparing same” (Richter Gedeon Vegyeszeti Gyar RT, priority 1989, dated 1992).
# Like-named read-outs stand apart in the source and are kept apart here.
# What was measured:
# [1] = system: triethyl tin chloride-induced cerebral edema; assay: Inhibition of the cerebral (brain) edema induced by triethyl tin chloride; type: in vivo, male Hannover-Wistar rats; conditions: rat, TET 2.5 mg/kg daily for 5 days
# Procedure: The cerebral edema-inhibiting effect of the compounds was investigated by the following method [Ann. Pharm. Fr. 42, 431 (1984)].
# A group consisting of 7 male Hannover-Wistar rats weighing 180 to 200 g were daily treated with 2.5 mg/kg of triethyl tin chloride (hereinafter TET) for 5 days to induce a cerebral edema. [TET (Merck-Schuchardt, Darmstadt, FRG) was dissolved in distilled water under stirring and the animals were orally treated with the stirred solution daily at 7 a.m.].
# The reference and test compounds were homogenized in a 0.5% by weight carboxymethylcellulose solution by using an Ultra Turrax stirrer and the stirring was continued during the administration, too. These compounds were orally given first 1 hour, then 6 hours after the TET treatment in a volume of 0.5 ml/100 g of body-weight in both cases. The control group received the solvent of TET (i.e. distilled water) and the carrier of the compounds (i.e. 0.5% by weight carboxymethylcellulose solution) at the same intervals and volumes as given above.
# On the 5th day of treatments, 2 hours following the last administration of the test compound, the animals were decapitated, the whole brain was rapidly taken out, washed with cold, 0.9% by weight sodium chloride solution and the moisture was removed by filter paper. The wet weights of the brains were weighed with an accuracy of one tenth mg and placed onto an aluminum foil previously weighed. Subsequently, the brains were dried at 90° C. for 92 hours, then the total (gross) weight (i.e. the dry brain weight together with the weight of the aluminum foil) was determined. The water content of the brain and the change thereof, respectively, were calculated from the difference of the wet and dry brain weight. The change was expressed as percentage of the protection as follows: [formula] wherein (TET-Ko) means the mean water content (%) of the brain of animals treated with TET and carrier;
# (TET-V) means the mean water content (%) of the brain of animals treated with TET and test compound;
# (Veh-Ko) means the mean water content (%) of the brain of animals treated with distilled water and carrier.
# The deviations of changes in the water content and dry weight of the brain were compared by using Student's "t" trial. Also here, piracetam and dihydroergotoxine were used as reference drugs.
# [2] = system: apomorphine-induced locomotor hyperactivity and stereotypy; assay: Inhibition of the apomorphine-induced locomotor hyperactivity and stereotypy; type: in vivo, male Hannover-Wistar rats; conditions: rat, 2.5 mg/kg oral; for Inhibition of apomorphine-induced LMA as percentage of the control / Inhibition of apomorphine-induced stereotypy as percentage of the control: apomorphine hydrochloride 1 mg/kg s.c.; for Inhibition of apomorphine-induced LMA as percentage of the control: control LMA 100% (438.9 ± 54.7 sec); for Inhibition of apomorphine-induced stereotypy as percentage of the control: control stereotypy 100% (105.0 ± 13.7 sec)
# From the text: Apomorphine induces a characteristic syndrome in rats and various animal species which manifests itself in the hyperactivity and stereotypic behavior of the animals [J. Pharm. Pharmacol. 19 627 (1957); J. Neurol. Transm. 40, 97 (1977); J. Psychiat. Res. 11, 1 (1974); J. Pharm. Pharmacol. 25, 1003 (1973); as well as Nature 263, 338 (1976)].
# Male Hannover-Wistar rats weighing 160 to 180 g were used in these examinations. The test compounds were suspended in a 2% Tween 80 solution and diluted to the desired concentration by adding distilled water. The corresponding dose was administered to rats in a volume of 5 ml/kg. The control group was treated with the above solution containing no test substance.
# One hour following the treatment with 2.5 mg/kg oral dose of the test compound, the rats were subcutaneously treated with 1 mg/kg of apomorphine hydrochloride.
# At 15 minutes after administration of apomorphine, the animals were placed in a 5-channel behavior-observing device controlled by a microprocessor and the coordinated and stereotypic motion of the animals were measured for 15 minutes. Chlozapine (chemically 8-chloro-11-(4-methyl-1-piperazinyl)-5H-dibenzo[b,e][1,4]diazepine) was used in a dose of 2.5 mg/kg as reference drug. The results are given as percentages of the control for both motion types.
# [3] = Cataleptogenic (catalepsy-inducing) effect; design: species or system male Wistar rats; conditions: in vivo; rat; oral; hourly for 6 hours
# hypoxic memory damage = assay: Inhibition of the hypoxic damage of the memory (nootropic effect), conditioned avoidance in Shuttle-box; type: in vivo, male spontaneously (genetically) hypertensive rats; conditions: rat, hypoxia 6% oxygen
# From the text: Male, spontaneously (genetically) hypertensive rats weighing 210 to 230 g were used in these examinations. The active avoiding behavior was developed in a 6-channel automated Shuttle-box by a training consisting of 30 cycles during 3 days. Within a single cycle an intermittent light stimulus of 1 Hz frequency for 15 seconds as conditioned stimulus and an electric stimulus of 0.8 mA for 10 seconds as unconditioned stimulus were used with an intersignal time of 15 seconds.
# On the 4th day, one hour before the experiment the animals were treated with a 10 mg/kg oral dose of the test compounds. Two control groups were used in these examinations, one of which was treated with placebo whereas the other one was treated with placebo and exposed to hypoxia. Piracetam (chemically 2-oxo-1-pyrrolidineacetic acid amide) and dihydroergotoxine were used as reference drugs. The performance of the animals was examined under hypoxic conditions in such a way that the boxes were flown through at a rate of 200 ml/min/box with a gaseous mixture containing 6% by volume of oxygen and 94% by volume of nitrogen. The number of the conditioned avoidance responses (as abbreviated hereinafter: CAR) was counted. The protective effect of the compounds against the hypoxic memory damage was calculated by using the following formula: [formula] wherein
# protective effect means the effect inhibiting the hypoxic memory damage expressed as percentage; and
# CAR x means the average value of the number of conditioned responses in the animal group given.
# The protective effect of the compounds against the hypoxic memory damage expressed as percentage of the control is shown in Table 2.
# hypobaric hypoxia = assay: Inhibition of the hypobaric hypoxia (survival time); type: in vivo, male spontaneously hypertensive rats; conditions: for ED50: po, 1 h, read-out: Protection against hypobaric hypoxia, ED50
# Procedure: Male, spontaneously hypertensive rats weighing 200 to 220 g were used in these investigations. Groups consisting of 3 animals each were placed into a desiccator of 6 liters by volume, the pressure was decreased to 170 Hgmm (22.66 kPa) within 20 seconds and continuously maintained at the same level. One hour before the examination, the animals were treated with various oral doses of the test compounds. The ED50 values (i.e. the doses prolonging the survival time of the test animals by 50% in comparison to that of the control group treated with placebo) were determined and summarized in Table 3.
Compound,"Protection (brain water content, cerebral edema) ([1]; dose 100 umol/kg oral) [%]",Inhibition of apomorphine-induced LMA as percentage of the control [2],Inhibition of apomorphine-induced stereotypy as percentage of the control [2],ED50 at 6 h [3] [mg/kg],further results
"CC1(O)NC(=O)OC12CCN(CCC=C(c1ccc(F)cc1)c1ccc(F)cc1)CC2.Cl (stereo not drawn) [E, 8-[4,4-bis(4-fluorophenyl)-3-butenyl]-4-hydroxy-4-methyl-2-oxo-1-oxa-3,8-diazaspiro[4,5]decane hydrochloride]",114.3,,,,
"CC1(O)N(Cc2ccccc2)C(=O)OC12CCN(CCC=C(c1ccc(F)cc1)c1ccc(F)cc1)CC2.Cl (stereo not drawn) [B, 3-benzyl-8-[4,4-bis(4-fluorophenyl)-3-butenyl]-4-hydroxy-4-methyl-2-oxo-1-oxa-3,8-diazaspiro[4,5]decane hydrochloride]",,-25 percentage of the control,+15 percentage of the control,> 300,
"CN1CCN(C2=Nc3cc(Cl)ccc3Nc3ccccc32)CC1 [Clozapine, 8-chloro-11-(4-methyl-1-piperazinyl)-5H-dibenzo[b,e][1,4]diazepine, reference compound]",,-25 percentage of the control,+11 percentage of the control,31.9,inhibition of stereotypy (in words) [2]: did not inhibit the stereotypy
"COc1ccc(CCN2C(=O)OC3(CCN(CCC=C(c4ccc(F)cc4)c4ccc(F)cc4)CC3)C2(C)O)cc1OC.O=C(O)/C=C\C(=O)O (stereo not drawn) [D, 8-[4,4-bis(4-fluorophenyl)-3-butenyl]-3-[2-(3,4-dimethoxyphenyl)ethyl]-4-hydroxy-4-methyl-2-oxo-1-oxa-3,8-diazaspiro[4,5]decane maleate]",102.2,,,,
"CC(C)(C)N1C(=O)OC2(CCN(CCC=C(c3ccc(F)cc3)c3ccc(F)cc3)CC2)C1(C)O.Cl (stereo not drawn) [C, 3-tert-butyl-8-[4,4-bis(4-fluorophenyl)-3-butenyl]-4-hydroxy-4-methyl-2-oxo-1-oxa-3,8-diazaspiro[4,5]decane hydrochloride]",88.1,,,,"Protection against amnesia (hypoxic memory damage; 10 mg/kg p.o.): 64%; ED50 (hypobaric hypoxia; rat, 170 Hgmm, dose prolonging survival time by 50% vs placebo control): 23.7 mg/kg; Protection (brain water content, cerebral edema) ([1]; dose 25 umol/kg oral): 97.9%; Protection (brain water content, cerebral edema) ([1]; dose 50 umol/kg oral): 102.0%"
dihydroergotoxine [DHE],,,,,"Protection against amnesia (hypoxic memory damage; 10 mg/kg p.o.): 63%; survival achieved at the high dose of DHE (hypobaric hypoxia; rat, 50.0 mg/kg p.o., hypobaric hypoxia): 40%; Protection against hypobaric hypoxia, ED50 (hypobaric hypoxia; rat, 170 Hgmm, dose prolonging survival time by 50% vs placebo control, 60 min): 50.0 mg/kg p.o.; Protection (brain water content, cerebral edema) ([1]; dose 30 mg/kg oral): 25.6%"
"CN1C(=O)OC2(CCN(CCC=C(c3ccc(F)cc3)c3ccc(F)cc3)CC2)C1(C)O.Cl (stereo not drawn) [A, 8-[4,4-bis(4-fluorophenyl)-3-butenyl]-3,4-dimethyl-4-hydroxy-2-oxo-1-oxa-3,8-diazaspiro[4,5]decane hydrochloride]",,-40 percentage of the control,0 percentage of the control,> 300,
"NC(=O)CN1CCCC1=O [PIR, 2-oxo-1-pyrrolidineacetic acid amide]",16.7,,,,Protection against amnesia (hypoxic memory damage; 500 mg/kg p.o.): 85%; ED50 (hypobaric hypoxia; Rattus norvegicus): 293 mg/kg
